Laboratory results: ChEMBL document CHEMBL3421584, “Allosteric modulators: an emerging concept in drug discovery” (ACS Med Chem Lett, 2015)

Biological target: Metabotropic glutamate receptor 2 (Homo sapiens) (UniProt Q14416)
Experiment: Negative allosteric modulation of human mGluR2 receptor expressed in CHO cell membranes assessed as inhibition of glutamate responses after 30 mins by [35S]GTPgammaS binding assay
Format: functional

Metabotropic glutamate receptor 2 (Homo sapiens), sequence (Q14416 19-872 limits assumed): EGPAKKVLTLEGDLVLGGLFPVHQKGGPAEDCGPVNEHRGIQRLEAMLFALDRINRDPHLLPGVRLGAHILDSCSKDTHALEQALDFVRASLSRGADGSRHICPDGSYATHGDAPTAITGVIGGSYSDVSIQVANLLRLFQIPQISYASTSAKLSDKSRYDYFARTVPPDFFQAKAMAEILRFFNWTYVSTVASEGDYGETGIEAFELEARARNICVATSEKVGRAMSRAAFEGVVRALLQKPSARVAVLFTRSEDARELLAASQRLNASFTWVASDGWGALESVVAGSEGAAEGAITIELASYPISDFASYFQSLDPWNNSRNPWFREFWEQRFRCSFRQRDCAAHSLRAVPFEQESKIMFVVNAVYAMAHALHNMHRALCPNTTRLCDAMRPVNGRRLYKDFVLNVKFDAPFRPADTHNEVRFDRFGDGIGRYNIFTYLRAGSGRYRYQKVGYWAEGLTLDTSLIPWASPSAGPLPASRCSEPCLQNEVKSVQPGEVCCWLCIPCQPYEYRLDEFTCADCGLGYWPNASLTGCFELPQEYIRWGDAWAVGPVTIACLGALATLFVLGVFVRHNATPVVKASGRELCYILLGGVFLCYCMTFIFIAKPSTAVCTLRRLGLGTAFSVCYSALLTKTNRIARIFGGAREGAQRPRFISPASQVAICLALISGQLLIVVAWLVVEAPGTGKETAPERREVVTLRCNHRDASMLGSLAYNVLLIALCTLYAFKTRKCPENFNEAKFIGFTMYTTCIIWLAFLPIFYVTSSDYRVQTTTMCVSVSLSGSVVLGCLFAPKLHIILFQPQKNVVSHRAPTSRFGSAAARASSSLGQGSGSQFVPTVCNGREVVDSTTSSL

| SMILES | Emax |
| --- | --- |
| C[C@H]1CN(c2ccc(C(F)(F)F)c(Cl)c2)C(=O)c2c(-c3ccnc(C#N)c3)cnn21 | 109% |
| Cc1cc(-c2cnn3c2C(=O)N(c2ccc(C(F)(F)F)cc2)C[C@@H]3C)ccn1 | 106% |
| CCC1CN(c2ccc(C(F)(F)F)cc2)C(=O)c2c(-c3ccnc(C)c3)cnn21 (centres undefined) | 106% |
| Cc1cc(-c2cnn3c2C(=O)N(c2ccc(C(C)O)cc2)C[C@@H]3C)ccn1 (some centres undefined) | 49% |
